Results reported in the NIST ThermoML archive (doi:10.1021/acs.jced.7b00002).
± gives the expanded uncertainty stated by the source.

Experiment: xn = mol fraction of the nth substance listed
Details: 97.6 kPa, Liquid; for viscosity: Capillary tube (Ostwald / Ubbelohde) method; for mass density: Vibrating tube method

CCCCCCCC[n+]1ccn(C)c1.[Cl-] [1-methyl-3-octylimidazolium chloride] + CC(=O)N(C)C
Details | mass density [kg/m3] | viscosity [mPa·s]
303.15 K, x1 = 0.139 | 958.09 ± 2 | 3.63
303.15 K, x1 = 0.273 | 975.02 ± 2.1 | 14.75
303.15 K, x1 = 0.361 | 981.93 ± 2.1 | 32.45
303.15 K, x1 = 0.468 | 988.64 ± 2.1 | 92.29
303.15 K, x1 = 0.602 | 994.87 ± 2.1 | 288.58
303.15 K, x1 = 0.786 | 1001.37 ± 2.1 | 1049.5
303.15 K, x1 = 0.877 | 1003.75 ± 2.1 | 1865.4
303.15 K, x1 = 1 | 1006.2 ± 2.2 | 7339.7
308.15 K, x1 = 0.139 | 954.07 ± 2 | 3.26
308.15 K, x1 = 0.273 | 971.38 ± 2.1 | 12.52
308.15 K, x1 = 0.361 | 978.45 ± 2.1 | 26.51
308.15 K, x1 = 0.468 | 985.3 ± 2.1 | 70.68
308.15 K, x1 = 0.602 | 991.72 ± 2.1 | 210.24
308.15 K, x1 = 0.786 | 998.36 ± 2.1 | 714.83
308.15 K, x1 = 0.877 | 1000.8 ± 2.1 | 1255
308.15 K, x1 = 1 | 1003.33 ± 2.1 | 4272.9
313.15 K, x1 = 0.139 | 950.12 ± 2 | 2.94
313.15 K, x1 = 0.273 | 967.74 ± 2.1 | 10.65
313.15 K, x1 = 0.361 | 974.97 ± 2.1 | 21.93
313.15 K, x1 = 0.468 | 981.99 ± 2.1 | 55.22
313.15 K, x1 = 0.602 | 988.57 ± 2.1 | 156.62
313.15 K, x1 = 0.786 | 995.34 ± 2.1 | 502.24
313.15 K, x1 = 0.877 | 997.86 ± 2.1 | 853.26
313.15 K, x1 = 1 | 1000.48 ± 2.1 | 2766.9
318.15 K, x1 = 0.139 | 946.26 ± 2 | 2.65
318.15 K, x1 = 0.273 | 964.11 ± 2.1 | 9.2
318.15 K, x1 = 0.361 | 971.5 ± 2.1 | 18.32
318.15 K, x1 = 0.468 | 978.68 ± 2.1 | 44.2
318.15 K, x1 = 0.602 | 985.42 ± 2.1 | 119.22
318.15 K, x1 = 0.786 | 992.37 ± 2.1 | 358.94
318.15 K, x1 = 0.877 | 994.92 ± 2.1 | 594.67
318.15 K, x1 = 1 | 997.64 ± 2.1 | 1788.6
323.15 K, x1 = 0.139 | 942.47 ± 2 | 2.42
323.15 K, x1 = 0.273 | 960.49 ± 2 | 8.02
323.15 K, x1 = 0.361 | 968.04 ± 2.1 | 15.51
323.15 K, x1 = 0.468 | 975.38 ± 2.1 | 35.89
323.15 K, x1 = 0.602 | 982.29 ± 2.1 | 92.49
323.15 K, x1 = 0.786 | 989.43 ± 2.1 | 263.25
323.15 K, x1 = 0.877 | 992 ± 2.1 | 425.36
323.15 K, x1 = 1 | 994.82 ± 2.1 | 1198.7
328.15 K, x1 = 0.139 | 938.72 ± 2 | 2.21
328.15 K, x1 = 0.273 | 956.87 ± 2 | 7.04
328.15 K, x1 = 0.361 | 964.59 ± 2.1 | 13.24
328.15 K, x1 = 0.468 | 972.09 ± 2.1 | 29.51
328.15 K, x1 = 0.602 | 979.16 ± 2.1 | 72.76
328.15 K, x1 = 0.786 | 986.49 ± 2.1 | 198.27
328.15 K, x1 = 0.877 | 989.12 ± 2.1 | 310.37
328.15 K, x1 = 1 | 992 ± 2.1 | 828.3
333.15 K, x1 = 0.139 | 934.99 ± 2 | 2.04
333.15 K, x1 = 0.273 | 953.26 ± 2 | 6.22
333.15 K, x1 = 0.361 | 961.14 ± 2 | 11.44
333.15 K, x1 = 0.468 | 968.81 ± 2.1 | 24.7
333.15 K, x1 = 0.602 | 976.05 ± 2.1 | 58.34
333.15 K, x1 = 0.786 | 983.55 ± 2.1 | 150.45
333.15 K, x1 = 0.877 | 986.24 ± 2.1 | 231.3
333.15 K, x1 = 1 | 989.17 ± 2.1 | 588.69
338.15 K, x1 = 0.139 | 931.23 ± 2 | 1.88
338.15 K, x1 = 0.273 | 949.65 ± 2 | 5.53
338.15 K, x1 = 0.361 | 957.71 ± 2 | 9.98
338.15 K, x1 = 0.468 | 965.54 ± 2.1 | 20.81
338.15 K, x1 = 0.602 | 972.96 ± 2.1 | 47.46
338.15 K, x1 = 0.786 | 980.62 ± 2.1 | 116.53
338.15 K, x1 = 0.877 | 983.37 ± 2.1 | 176.46
338.15 K, x1 = 1 | 986.38 ± 2.1 | 426.28
343.15 K, x1 = 0.139 | 927.34 ± 2 | 1.74
343.15 K, x1 = 0.273 | 946.05 ± 2 | 4.96
343.15 K, x1 = 0.361 | 954.28 ± 2 | 8.73
343.15 K, x1 = 0.468 | 962.28 ± 2.1 | 17.72
343.15 K, x1 = 0.602 | 969.87 ± 2.1 | 38.89
343.15 K, x1 = 0.786 | 977.69 ± 2.1 | 91.77
343.15 K, x1 = 0.877 | 980.49 ± 2.1 | 136.74
343.15 K, x1 = 1 | 983.63 ± 2.1 | 316.66
348.15 K, x1 = 0.139 | 923.35 ± 2 | 1.62
348.15 K, x1 = 0.273 | 942.44 ± 2 | 4.47
348.15 K, x1 = 0.361 | 950.85 ± 2 | 7.7
348.15 K, x1 = 0.468 | 959.03 ± 2 | 15.26
348.15 K, x1 = 0.602 | 966.79 ± 2.1 | 32.38
348.15 K, x1 = 0.786 | 974.78 ± 2.1 | 73.67
348.15 K, x1 = 0.877 | 977.62 ± 2.1 | 107.08
348.15 K, x1 = 1 | 980.88 ± 2.1 | 237.14
353.15 K, x1 = 0.139 | 919.35 ± 2 | 1.51
353.15 K, x1 = 0.273 | 938.85 ± 2 | 4.05
353.15 K, x1 = 0.361 | 947.43 ± 2 | 6.85
353.15 K, x1 = 0.468 | 955.78 ± 2 | 13.2
353.15 K, x1 = 0.602 | 963.72 ± 2.1 | 27.28
353.15 K, x1 = 0.786 | 971.87 ± 2.1 | 59.69
353.15 K, x1 = 0.877 | 974.77 ± 2.1 | 85.14
353.15 K, x1 = 1 | 978.13 ± 2.1 | 181.41
